Like-named read-outs stand apart in the source and are kept apart here.
Assays:
Assay type in all cases: cell-based
[1] = test system: SDMA (PRMT5 activity) in HAP1 MTAP-intact cell line; test: SDMA in-cell western assay, HAP1 MTAP-intact
Procedure: (§1) The SAM-cooperative PRMT5 inhibitor, GSK3326595, was sourced from SelleckChem and maintained as a 10 mM DMSO stock. All test compounds are maintained as 10 mM DMSO stocks
(§2) On Day 0, MTAP-intact or MTAP-deleted cells are seeded in a 384-well plate, and incubated in a humidified, 5% CO2 tissue culture incubator for 16-24 hours. On Day 1, the test compounds are dispensed to wells at defined concentrations using a Tecan D300e digital dispenser (n=4), and the volume of DMSO is normalized to highest class volume. Each plate includes wells dosed with defined concentrations of GSK33226595 as a plate control. The compounds are incubated with cells for 24 hours in a humidified, 5% CO2 tissue culture incubator.
(§3) On Day 2, the compound-treated cells are fixed with a final concentration of 4% formaldehyde. The cells are then washed/permeabilized with 1×PBS+0.1% Triton X-100, and then blocked with 5% goat serum/1×TBS.
(§4) The cells are washed with 1×PBS+0.1% Triton X-100, and then washed again with ddH20. The plates are then imaged using a NIR fluorescent imager (LiCor Odyssey).
(§5) For data analysis, the SDMA signal is normalized to the DRAQ5 signal. Assay background is determined by the signal from wells treated with 1 μM GSK3326595, and subtracted from every well. The data are plotted as % of the DMSO control wells for the MTAP-intact and the MTAP-deleted cell lines independently, and fitted to the 4-parameter logistic (4-PL) Hill equation with maximal effect constrained to 0. The fit was performed using GraphPad Prism or the default IC50 fitting procedure in Dotmatics Studies 5.4 as part of a customized data analysis protocol.

[2] = test system: SDMA (PRMT5 activity) in HAP1 MTAP-deleted cell line; test: SDMA in-cell western assay, HAP1 MTAP-deleted
Procedure: as §1, §2, §3, §4, §5

[3] = test system: HAP1 MTAP-deleted cell line; test: Viability assay (CellTiter-Glo), HAP1 MTAP-deleted; conditions: Homo sapiens, 168 h, HAP1 MTAP-deleted cells, 7 days
Procedure: All test compounds are maintained as 10 mM DMSO stocks.
On Day 0, MTAP-intact and MTAP-deleted cells are seeded in a 96-well plate, and incubated in a humidified, 5 or 10% CO2 tissue culture incubator for 16-24 hours. On Day 1, the test compounds are dispensed to wells at defined concentrations using a Tecan D300e digital dispenser (n=3), and the volume of DMSO is normalized to highest class volume (0.2%). The compound-treated plates are incubated for 7 days in a humidified, 5 or 10% CO2 tissue culture incubator.
On Day 7, the plates are removed from the tissue culture incubator and allowed to equilibrate to room temperature. Then either a ½% volume CellTiter-Glo Luminescent Cell Viability Assay reagent (Promega G7572) is added to each well, or the media is removed from every well and a 1:3 dilution of CellTiter-Glo 2.0 Cell Viability Assay reagent (Promega G9241) in 1×PBS is added. Ten minutes after addition, the luminescent signal is detected by an Envision plate reader. The data are plotted as % of the DMSO control wells for the MTAP-intact and the MTAP-deleted cell lines independently, and fitted to the 4-parameter logistic (4-PL) Hill equation with maximal effect constrained to 0. The fit was performed using GraphPad Prism or the default IC50 fitting procedure in Dotmatics Studies 5.4 as part of a customized data analysis protocol.

[4] = Homo sapiens, HAP1, 24 h, SDMA in-cell western, HAP1 MTAP-intact cells, 24 hours compound incubation
[5] = Homo sapiens, SDMA in-cell western, HAP1 MTAP-deleted cells, 24 hours compound incubation
[6] = ratio of SDMA IC50 in HAP1 MTAP-intact to HAP1 MTAP-deleted cell line

Row | SMILES | IC50 [1, 4] | IC50 [2, 5] | IC90 [2, 5] | Hap1 MTAP intact/deleted ratio [2, 6] | IC50 [3] | IC50 ([1]; Homo sapiens, SDMA in-cell western, HAP1 MTAP-intact cells, 24 hours compound incubation) | IC50 [1] | Hap1 MTAP intact/deleted ratio [2] | IC50 [2] | IC90 [2]
1 | CCc1cc(NC(=O)C(=O)N2C[C@@H](C)CC[C@@H]2c2cccc(OC3CCN(C)C3)c2)cnc1N (mixture of isomers) [Compound 39, N-(6-amino-5-ethylpyridin-3-yl)-2-((2R,5S)-5-methyl-2-(3-((1-methylpyrrolidin-3-yl)oxy)phenyl)piperidin-1-yl)-2-oxoacetamide] | > 50 nM | 5 to 50 nM | 75 to 125 nM | A (“A” indicates an IC50 ratio greater than or equal to 30 fold) | < 100 nM |  |  |  |  | 
2 | CCc1cc(NC(=O)C(=O)N2C[C@@H](C)CC[C@@H]2c2ccc3cn([C@@H]4CCN(C)C[C@@H]4C)nc3c2)cnc1N [Compound 127] | 5 to 50 nM | < 5 nM | < 75 nM | C (“C” indicates an IC50 ratio of less than 15 fold) | < 100 nM |  |  |  |  | 
3 | CCc1cc(NC(=O)C(=O)N2C[C@@H](C)CC[C@@H]2c2cccc(OC[C@H](C)N(C)C)c2)cnc1N [Compound 66, N-(6-amino-5-ethylpyridin-3-yl)-2-((2R,5S)-2-(3-((S)-2-(dimethylamino)propoxy)phenyl)-5-methylpiperidin-1-yl)-2-oxoacetamide] | > 50 nM | < 5 nM | < 75 nM | A (“A” indicates an IC50 ratio greater than or equal to 30 fold) | < 100 nM |  |  |  |  | 
4 | COc1ncc(NC(=O)C(=O)N2C[C@@H](C)CC[C@@H]2c2ccc3sc(C4=C(C)CN(C)CC4)nc3c2)cc1C(N)=O [Compound 61, 5-(2-((2R,5S)-2-(2-(1,5-dimethyl-1,2,3,6-tetrahydropyridin-4-yl)benzo[d]thiazol-5-yl)-5-methylpiperidin-1-yl)-2-oxoacetamido)-2-methoxynicotinamide] |  | < 5 nM | < 75 nM | A (“A” indicates an IC50 ratio greater than or equal to 30 fold) | < 100 nM | > 50 nM |  |  |  | 
5 | COc1ncc(NC(=O)C(=O)N2C[C@@H](C)CC[C@@H]2c2ccc3ccc(C4CCN(C)CC4)nc3c2)cc1C(N)=O [Compound 88, 2-methoxy-5-(2-((2R,5S)-5-methyl-2-(2-(1-methylpiperidin-4-yl)quinolin-7-yl)piperidin-1-yl)-2-oxoacetamido)nicotinamide] | > 50 nM | < 5 nM | < 75 nM | A (“A” indicates an IC50 ratio greater than or equal to 30 fold) | < 100 nM |  |  |  |  | 
6 | COc1ncc(NC(=O)C(=O)N2C[C@@H](C)CC[C@@H]2c2ccc3sc(C[C@H]4CCN(C)C[C@@H]4C)nc3c2)cc1C(N)=O (racemic) [Compound 64, 5-(2-((2R,5S)-2-(2-((1,3-dimethylpiperidin-4-yl)methyl)benzo[d]thiazol-5-yl)-5-methylpiperidin-1-yl)-2-oxoacetamido)-2-methoxynicotinamide] | > 50 nM | < 5 nM | < 75 nM | A (“A” indicates an IC50 ratio greater than or equal to 30 fold) | < 100 nM |  |  |  |  | 
7 | CCc1cc(NC(=O)C(=O)N2C[C@@H](C)CC[C@@H]2c2ccc3sc([C@H]4CN(C)C(C)(C)C4)nc3c2)cnc1N (single isomer, unassigned) [Compound 27] | 5 to 50 nM | < 5 nM | < 75 nM | B (“B” indicates an IC50 ratio greater than or equal to 15 fold but lower than 30 fold) | < 100 nM |  |  |  |  | 
8 | COc1ncc(NC(=O)C(=O)N2C[C@@H](C)CC[C@@H]2c2ccc3sc(C4CCNCC4)nc3c2)cc1C(N)=O [Compound 52, 2-methoxy-5-(2-((2R,5S)-5-methyl-2-(2-(piperidin-4-yl)benzo[d]thiazol-5-yl)piperidin-1-yl)-2-oxoacetamido)nicotinamide] | > 50 nM | 5 to 50 nM | 75 to 125 nM | B (“B” indicates an IC50 ratio greater than or equal to 15 fold but lower than 30 fold) | 100 to 1000 nM |  |  |  |  | 
9 | CCc1cc(NC(=O)C(=O)N2C[C@@H](C)CC[C@@H]2c2ccc3sc(C[C@H](C)N(C)C)nc3c2)cnc1N [Compound 55, N-(6-amino-5-ethylpyridin-3-yl)-2-((2R,5S)-2-(2-((S)-2-(dimethylamino)propyl)benzo[d]thiazol-5-yl)-5-methylpiperidin-1-yl)-2-oxoacetamide] | 5 to 50 nM | < 5 nM | < 75 nM | B (“B” indicates an IC50 ratio greater than or equal to 15 fold but lower than 30 fold) | < 100 nM |  |  |  |  | 
10 | CCc1cc(NC(=O)C(=O)N2C[C@@H](C)CC[C@@H]2c2ccc3ccc(C4CCN(C)CC4)cc3c2)cnc1N [Compound 123, N-(6-amino-5-ethylpyridin-3-yl)-2-((2R,5S)-5-methyl-2-(7-(1-methylpiperidin-4-yl)naphthalen-2-yl)piperidin-1-yl)-2-oxoacetamide] | > 50 nM | < 5 nM | < 75 nM | A (“A” indicates an IC50 ratio greater than or equal to 30 fold) | < 100 nM |  |  |  |  | 
11 | CCc1cc(NC(=O)C(=O)N2C[C@@H](C)CC[C@@H]2c2ccc3cn([C@H]4C[C@H](C)CN(C)C4)nc3c2)cnc1N (relative stereo) [Compound 85, N-(6-amino-5-ethylpyridin-3-yl)-2-((2R,5S)-2-(2-(1,5-dimethylpiperidin-3-yl)-2H-indazol-6-yl)-5-methylpiperidin-1-yl)-2-oxoacetamide] | > 50 nM | < 5 nM | < 75 nM | A (“A” indicates an IC50 ratio greater than or equal to 30 fold) | < 100 nM |  |  |  |  | 
12 | CCc1cc(NC(=O)C(=O)N2C[C@@H](C)CC[C@@H]2c2ccc3ccc(C#N)nc3c2)cnc1N [Compound 32, N-(6-amino-5-ethylpyridin-3-yl)-2-((2R,5S)-2-(2-cyanoquinolin-7-yl)-5-methylpiperidin-1-yl)-2-oxoacetamide] | > 50 nM | 5 to 50 nM | > 125 nM | A (“A” indicates an IC50 ratio greater than or equal to 30 fold) | 100 to 1000 nM |  |  |  |  | 
13 | CCc1cc(NC(=O)C(=O)N2C[C@@H](C)CC[C@@H]2c2ccc3cc(C#N)c(C4CCN(C)CC4)nc3c2)cnc1N [Compound 63, N-(6-amino-5-ethylpyridin-3-yl)-2-((2R,5S)-2-(3-cyano-2-(1-methylpiperidin-4-yl)quinolin-7-yl)-5-methylpiperidin-1-yl)-2-oxoacetamide] | > 50 nM | < 5 nM | < 75 nM | A (“A” indicates an IC50 ratio greater than or equal to 30 fold) | < 100 nM |  |  |  |  | 
14 | Cc1cc2cc(C(=O)N3C[C@@H](C)CC[C@@H]3c3ccc4sc(C5CCN(C)CC5)nc4c3)ccc2nc1N [Compound 59, (2-amino-3-methylquinolin-6-yl)((2R,5S)-5-methyl-2-(2-(1-methylpiperidin-4-yl)benzo[d]thiazol-5-yl)piperidin-1-yl)methanone] |  |  |  |  | < 100 nM |  | > 50 nM | A (key: “A” indicates an IC50 ratio greater than or equal to 30 fold; “B” indicates an IC50 ratio greater than or equal to 15 fold but lower than 30 fold; “C” indicates an IC50 ratio of less than 15 fold) | < 5 nM | < 75 nM
15 | CCc1cc(NC(=O)C(=O)N2C[C@@H](C)CC[C@@H]2c2ccc3cn([C@H]4CCOC4)nc3c2)cnc1N (racemic) [Compound 93, N-(6-amino-5-ethyl-3-pyridyl)-2-oxo-2-[rac-(2R,5S)-5-methyl-2-(2-tetrahydrofuran-3-ylindazol-6-yl)-1-piperidyl]acetamide] | > 50 nM | 5 to 50 nM | < 75 nM | A (“A” indicates an IC50 ratio greater than or equal to 30 fold) | < 100 nM |  |  |  |  | 

From patent publication US20250171432A1, “COMPOUNDS AND METHODS OF USE” (Tango Therapeutics, Inc., priority 2022, published 2025)
